Results: PMC3050001 (Science (New York, N.Y.), 2010)

Key:
[1] = system: synchronized parasites at ring, trophozoite and schizont stages; experiment: In vitro drug sensitivity assay with synchronized parasites; type: cell-based, Plasmodium falciparum
P. berghei = type: in vivo, Plasmodium berghei (mice)
[2] = system: P. vivax clinical isolates; experiment: Ex vivo sensitivity assay with fresh clinical isolates
[3] = system: P. falciparum parasites (Dd2, NITD609-R^Dd2); experiment: [35S]-Met/Cys incorporation assay; type: cell-based, Plasmodium falciparum; details: P. falciparum Dd2, within one hour
[4] = system: Dd2^attB parasites expressing mutant PfATP4; experiment: Growth inhibition of transgenic pfatp4 lines
[5] = type: in vivo, mice and rats
[6] = miniaturized Ames assay
[7] = system: panel of human G-protein coupled receptors, enzymes and ion channels
[8] = male rats, oral, daily for 14 days
in vivo = details: male, rat, po
[9] = system: P. falciparum clinical isolates; experiment: Ex vivo sensitivity assay with fresh clinical isolates; details: Plasmodium falciparum, in Homo sapiens
[10] = system: drug-selected Dd2 parasites (NITD609-R^Dd2, NITD678-R^Dd2); details: for cross-resistance in spiroindolone-selected mutants: NITD609- and NITD678-selected Dd2 mutants
P. falciparum strains = details: culture-adapted P. falciparum strains incl. drug-resistant strains

CO[C@H]1O[C@@H]2O[C@@]3(C)CC[C@H]4[C@H](C)CC[C@@H]([C@H]1C)[C@@]24OO3 [Artemether, reference compound]
inhibition of parasite growth ([1]; treatment at 8 nM for 6 hours): Strong inhibition | Survival (P. berghei; 1 × 100 mg/kg oral, control animals 6–7 days): 7.6 days

CCN(CC)CCCC(C)Nc1ccnc2cc(Cl)ccc12 (stereo not drawn) [Chloroquine, reference compound]
stage-specific sensitivity (ring vs trophozoite) ([2]; P. vivax, drug exposure 20 h, growth determined after 42 hours): significant stage-specific sensitivity

OC(c1cc(C(F)(F)F)nc2c(C(F)(F)F)cccc12)C1CCCCN1 (stereo not drawn) [Mefloquine]
effect on protein synthesis ([35S]-Met/Cys incorporation) [3]: only showed a nominal decrease | potency against wild-type vs transgenic strains [4]: equivalent potency

C[C@H]1Cc2c([nH]c3cc(Cl)c(F)cc23)[C@@]2(N1)C(=O)Nc1ccc(Cl)cc12 [NITD609]
sensitivity of parasite blood stages ([1]; high concentration, ≈100 × IC50 value): all stages (rings, trophozoites and schizonts) were similarly sensitive | sensitivity of parasite blood stages ([1]; low concentrations, ≈1 or 10 × IC50 value): schizonts were the most susceptible | effect on protein synthesis ([35S]-Met/Cys incorporation) [3]: effectively blocked protein synthesis | volume of distribution ([5]; mice and rats, oral and intravenous administration): moderate | bioavailability ([5]; orally administered): excellent | half-life ([5]; orally administered): long | oral absorption ([5]; orally administered): well absorbed | ED90 (P. berghei; oral, P. berghei mouse model): 2.7 mg/kg | intrinsic mutagenic activity [6]: lacked intrinsic mutagenic activity | binding to off-target panel [7]: no significant binding | adverse events / histopathological findings [8]: no adverse events or significant histopathological findings were observed | AUC(0-t) (in vivo): 29400 to 56500 ng·h/mL | logD (physchem; pH 7.4): 4.6 | pKa (physchem; pKa^2): 10.7 | IC50 ([2]; Plasmodium vivax, in Homo sapiens): < 10 nM | IC50 [9]: < 10 nM | IC50 ([10]; Plasmodium falciparum, DD2, read-out: mean IC50 of drug-selected parasites): 3 to 11 nM | IC50 (P. falciparum strains): 0.5 to 1.4 nM

COc1ccc(C[C@H]2NC[C@H](O)[C@H]2OC(C)=O)cc1 [anisomycin]
effect on protein synthesis ([35S]-Met/Cys incorporation) [3]: A similar effect was observed

C[C@@H]1CC[C@H]2[C@@H](C)C(=O)O[C@@H]3O[C@@]4(C)CC[C@@H]1[C@]32OO4 [artemisinin]
effect on protein synthesis ([35S]-Met/Cys incorporation) [3]: only showed a nominal decrease | cross-resistance in spiroindolone-selected mutants [10]: None of the selected mutants showed cross-resistance | potency against wild-type vs transgenic strains [4]: equivalent potency

C[C@@H]1C[C@@H]([C@H](O)CC2CC(=O)NC(=O)C2)C(=O)[C@@H](C)C1 [cycloheximide]
effect on protein synthesis ([35S]-Met/Cys incorporation) [3]: A similar effect was observed

CC(=O)C1=C(O)[C@@H]2[C@H]3c4c[nH]c5cccc(c45)C[C@H]3C(C)(C)N2C1=O [cyclopiazonic acid]
cross-resistance in spiroindolone-selected mutants [10]: no cross-resistance

C/C=C(/C)C(=O)O[C@H]1C(C)=C2[C@H]([C@@H]1OC(=O)CCCCCCC)[C@@](C)(OC(C)=O)C[C@H](OC(=O)CCC)[C@@]1(O)[C@H]2OC(=O)[C@@]1(C)O [thapsigargin]
cross-resistance in spiroindolone-selected mutants [10]: no cross-resistance
